Measurements: PubChem BioAssay (NCI)
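In this assay, cells in 96-well plates receive the compound at five concentrations for 48 hours. Endpoints are linearly interpolated between the surrounding concentrations. GI50 is the concentration that inhibits growth by half. TGI marks complete inhibition of growth.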

Assays:
Assay in all cases: growth of human tumour cells (NCI), 48 h
786-0 renal = test system: 786-0 renal
A498 renal = test system: A498 renal
A549 NSCLC = test system: A549 NSCLC
ACHN renal = test system: ACHN renal
BT-549 breast = test system: BT-549 breast
CAKI-1 renal = test system: CAKI-1 renal
CCRF-CEM leukemia = test system: CCRF-CEM leukemia
COLO 205 colon = test system: COLO 205 colon
DU-145 prostate = test system: DU-145 prostate
HCC-2998 colon = test system: HCC-2998 colon
HCT-116 colon = test system: HCT-116 colon
HCT-15 colon = test system: HCT-15 colon
HL-60(TB) leukemia = test system: HL-60(TB) leukemia
HOP-62 NSCLC = test system: HOP-62 NSCLC
HOP-92 NSCLC = test system: HOP-92 NSCLC
HS 578T breast = test system: HS 578T breast
HT29 colon = test system: HT29 colon
IGROV1 ovarian = test system: IGROV1 ovarian
K-562 leukemia = test system: K-562 leukemia
KM12 colon = test system: KM12 colon
LOX IMVI melanoma = test system: LOX IMVI melanoma
M14 melanoma = test system: M14 melanoma
MALME-3M melanoma = test system: MALME-3M melanoma
MCF7 breast = test system: MCF7 breast
MDA-MB-435 = test system: MDA-MB-435
MOLT-4 leukemia = test system: MOLT-4 leukemia
NCI-H226 lung = test system: NCI-H226 lung
NCI-H23 lung = test system: NCI-H23 lung
NCI-H460 lung = test system: NCI-H460 lung
NCI-H522 lung = test system: NCI-H522 lung
NCI/ADR-RES ovarian = test system: NCI/ADR-RES ovarian
OVCAR-3 ovarian = test system: OVCAR-3 ovarian
OVCAR-4 ovarian = test system: OVCAR-4 ovarian
OVCAR-5 ovarian = test system: OVCAR-5 ovarian
OVCAR-8 ovarian = test system: OVCAR-8 ovarian
PC-3 prostate = test system: PC-3 prostate
RPMI-8226 leukemia = test system: RPMI-8226 leukemia
RXF 393 renal = test system: RXF 393 renal
SF-268 CNS = test system: SF-268 CNS
SF-295 CNS = test system: SF-295 CNS
SF-539 CNS = test system: SF-539 CNS
SK-MEL-2 melanoma = test system: SK-MEL-2 melanoma
SK-MEL-28 melanoma = test system: SK-MEL-28 melanoma
SK-MEL-5 melanoma = test system: SK-MEL-5 melanoma
SK-OV-3 ovarian = test system: SK-OV-3 ovarian
SN12C renal = test system: SN12C renal
SNB-19 CNS = test system: SNB-19 CNS
SNB-75 CNS = test system: SNB-75 CNS
SR leukemia = test system: SR leukemia
SW-620 colon = test system: SW-620 colon
T-47D breast = test system: T-47D breast
TK-10 renal = test system: TK-10 renal
U251 CNS = test system: U251 CNS
UACC-257 melanoma = test system: UACC-257 melanoma
UACC-62 melanoma = test system: UACC-62 melanoma
UO-31 renal = test system: UO-31 renal

For `Cc1ccc2c(n1)C(=O)C(Cl)=C(Nc1cccc(C(F)(F)F)c1)C2=O`, the GI50 (786-0 renal) was 1.8 µM, the TGI (786-0 renal) was 3.55 µM and the GI50 (A498 renal) was 13.8 µM. For the same compound, the TGI (A498 renal) was 27.9 µM, the GI50 (A549 NSCLC) was 20.1 µM and the TGI (A549 NSCLC) was 50 µM. The GI50 (ACHN renal) was 1.78 µM, the TGI (ACHN renal) was 3.31 µM and the GI50 (BT-549 breast) was 2.16 µM. It also gave a TGI (BT-549 breast) of 5.47 µM, a GI50 (CAKI-1 renal) of 1.58 µM and a TGI (CAKI-1 renal) of 3.01 µM. The GI50 (CCRF-CEM leukemia) was 1.46 µM, the TGI (CCRF-CEM leukemia) was 4.71 µM and the GI50 (COLO 205 colon) was 1.82 µM. It also gave a TGI (COLO 205 colon) of 3.78 µM, a GI50 (DU-145 prostate) of 1.8 µM and a TGI (DU-145 prostate) of 3.31 µM. For the same compound, the GI50 (HCC-2998 colon) was 2.6 µM, the TGI (HCC-2998 colon) was 6.48 µM and the GI50 (HCT-116 colon) was 1.51 µM. The TGI (HCT-116 colon) was 3.22 µM, the GI50 (HCT-15 colon) was 1.66 µM and the TGI (HCT-15 colon) was 3.55 µM. For the same compound, the GI50 (HL-60(TB) leukemia) was 1.5 µM, the TGI (HL-60(TB) leukemia) was 3.68 µM and the GI50 (HOP-62 NSCLC) was 17 µM. The TGI (HOP-62 NSCLC) was 31.8 µM, the GI50 (HOP-92 NSCLC) was 1.91 µM and the TGI (HOP-92 NSCLC) was 3.89 µM. The GI50 (HS 578T breast) was 15.1 µM, the TGI (HS 578T breast) was 85.6 µM and the GI50 (HT29 colon) was 2.6 µM. The TGI (HT29 colon) was 6.63 µM, the GI50 (IGROV1 ovarian) was 1.87 µM and the TGI (IGROV1 ovarian) was 3.6 µM. For the same compound, the GI50 (K-562 leukemia) was 0.31 µM, the TGI (K-562 leukemia) was 1.3 µM and the GI50 (KM12 colon) was 15.9 µM. For the same compound, the TGI (KM12 colon) was 32.3 µM, the GI50 (LOX IMVI melanoma) was 1.51 µM and the TGI (LOX IMVI melanoma) was 3.33 µM. The GI50 (M14 melanoma) was 1.92 µM, the TGI (M14 melanoma) was 4.39 µM and the GI50 (MALME-3M melanoma) was 1.79 µM. The TGI (MALME-3M melanoma) was 3.61 µM, the GI50 (MCF7 breast) was 1.85 µM and the TGI (MCF7 breast) was 4.66 µM. For the same compound, the GI50 (MDA-MB-435) was 1.95 µM, the TGI (MDA-MB-435) was 3.91 µM and the GI50 (MOLT-4 leukemia) was 1.69 µM. The TGI (MOLT-4 leukemia) was 5.38 µM, the GI50 (NCI-H226 lung) was 2.57 µM and the TGI (NCI-H226 lung) was 11.5 µM. It also gave a GI50 (NCI-H23 lung) of 1.82 µM, a TGI (NCI-H23 lung) of 4.67 µM and a GI50 (NCI-H460 lung) of 18.4 µM. For the same compound, the TGI (NCI-H460 lung) was 40.8 µM, the GI50 (NCI-H522 lung) was 2.03 µM and the TGI (NCI-H522 lung) was 5.12 µM. It also gave a GI50 (NCI/ADR-RES ovarian) of 2.65 µM, a TGI (NCI/ADR-RES ovarian) of 7.88 µM and a GI50 (OVCAR-3 ovarian) of 1.68 µM. The TGI (OVCAR-3 ovarian) was 3.11 µM, the GI50 (OVCAR-4 ovarian) was 1.56 µM and the TGI (OVCAR-4 ovarian) was 3.27 µM. For the same compound, the GI50 (OVCAR-5 ovarian) was 6.03 µM, the TGI (OVCAR-5 ovarian) was 22.1 µM and the GI50 (OVCAR-8 ovarian) was 2.68 µM. The TGI (OVCAR-8 ovarian) was 8.93 µM, the GI50 (PC-3 prostate) was 2.9 µM and the TGI (PC-3 prostate) was 11.5 µM. It also gave a GI50 (RPMI-8226 leukemia) of 1.92 µM, a TGI (RPMI-8226 leukemia) of 5.91 µM and a GI50 (RXF 393 renal) of 1.61 µM. It also gave a TGI (RXF 393 renal) of 3 µM, a GI50 (SF-268 CNS) of 4.76 µM and a TGI (SF-268 CNS) of 19.6 µM. It also gave a GI50 (SF-295 CNS) of 16.3 µM, a TGI (SF-295 CNS) of 31.2 µM and a GI50 (SF-539 CNS) of 3.18 µM. The TGI (SF-539 CNS) was 10.3 µM, the GI50 (SK-MEL-2 melanoma) was 2.38 µM and the TGI (SK-MEL-2 melanoma) was 5.73 µM. It also gave a GI50 (SK-MEL-28 melanoma) of 1.95 µM, a TGI (SK-MEL-28 melanoma) of 3.66 µM and a GI50 (SK-MEL-5 melanoma) of 2.75 µM. For the same compound, the TGI (SK-MEL-5 melanoma) was 7.84 µM, the GI50 (SK-OV-3 ovarian) was 14.2 µM and the TGI (SK-OV-3 ovarian) was 27.6 µM. It also gave a GI50 (SN12C renal) of 2.16 µM, a TGI (SN12C renal) of 5.66 µM and a GI50 (SNB-19 CNS) of 16 µM. For the same compound, the TGI (SNB-19 CNS) was 45.3 µM, the GI50 (SNB-75 CNS) was 13 µM and the TGI (SNB-75 CNS) was 27.4 µM. The GI50 (SR leukemia) was 1.56 µM, the TGI (SR leukemia) was 5 µM and the GI50 (SW-620 colon) was 2.05 µM. The TGI (SW-620 colon) was 4.89 µM, the GI50 (T-47D breast) was 1.93 µM and the TGI (T-47D breast) was 4.8 µM. For the same compound, the GI50 (TK-10 renal) was 2.01 µM, the TGI (TK-10 renal) was 3.52 µM and the GI50 (U251 CNS) was 6.45 µM. The TGI (U251 CNS) was 24.8 µM, the GI50 (UACC-257 melanoma) was 1.65 µM and the TGI (UACC-257 melanoma) was 3.24 µM. It also gave a GI50 (UACC-62 melanoma) of 4.28 µM, a TGI (UACC-62 melanoma) of 18.4 µM and a GI50 (UO-31 renal) of 1.54 µM. The TGI (UO-31 renal) was 2.95 µM.
